Test results from the NIST ThermoML archive (doi:10.1016/j.jct.2014.01.030).
Numbers after ± are expanded uncertainties.

Test: xn = mol fraction of the nth substance listed
Details: 101 kPa, Liquid; for speed of sound: Sing-around technique in a fixed-path interferometer; for mass density: Vibrating tube method

CCn1cc[n+](C)c1.COS(=O)(=O)[O-] [1-ethyl-3-methylimidazolium methylsulfate] + CCCO
Details	mass density, 288.15 K [kg/m3]	mass density, 298.15 K [kg/m3]	mass density, 308.15 K [kg/m3]	speed of sound, 288.15 K [m/s]	speed of sound, 298.15 K [m/s]	speed of sound, 308.15 K [m/s]
x2 = 0	1287.57 ± 0.47	1280.81 ± 0.47	1273.97 ± 0.46	1781 ± 2	1756 ± 2	1732 ± 2
x2 = 0.055	1277.08 ± 0.43	1270.16 ± 0.43	1263.29 ± 0.42	1765 ± 2	1741 ± 2	1717 ± 2
x2 = 0.104	1266.71 ± 0.4	1259.77 ± 0.39	1252.89 ± 0.39	1750 ± 2	1725 ± 2	1701 ± 2
x2 = 0.21	1241.65 ± 0.33	1234.68 ± 0.32	1227.75 ± 0.32	1712 ± 2	1687 ± 2	1662 ± 2
x2 = 0.307	1215.18 ± 0.27	1208.16 ± 0.27	1201.19 ± 0.27	1671 ± 2	1645 ± 2	1620 ± 2
x2 = 0.414	1181.08 ± 0.23	1174.01 ± 0.22	1166.97 ± 0.22	1617 ± 2	1592 ± 2	1567 ± 2
x2 = 0.519	1141.11 ± 0.19	1133.94 ± 0.19	1126.8 ± 0.19	1559 ± 2	1533 ± 2	1507 ± 2
x2 = 0.62	1095.52 ± 0.18	1088.26 ± 0.17	1081.02 ± 0.17	1498 ± 2	1471 ± 2	1445 ± 2
x2 = 0.718	1042.21 ± 0.17	1034.8 ± 0.17	1027.38 ± 0.17	1435 ± 2	1407 ± 2	1380 ± 2
x2 = 0.81	981.73 ± 0.18	974.16 ± 0.19	966.57 ± 0.19	1373 ± 2	1344 ± 2	1315 ± 2
x2 = 0.907	903.61 ± 0.21	895.88 ± 0.21	888.1 ± 0.21	1307 ± 2	1276 ± 2	1245 ± 2
x2 = 0.954	858.4 ± 0.24	850.58 ± 0.24	842.66 ± 0.25	1276 ± 2	1243 ± 2	1211 ± 2

CCn1cc[n+](C)c1.COS(=O)(=O)[O-] [1-ethyl-3-methylimidazolium methylsulfate] + CCCCCO
Details	mass density, 288.15 K [kg/m3]	mass density, 298.15 K [kg/m3]	mass density, 308.15 K [kg/m3]	speed of sound, 288.15 K [m/s]	speed of sound, 298.15 K [m/s]	speed of sound, 308.15 K [m/s]
x2 = 0	1287.57 ± 0.47	1280.81 ± 0.47	1273.97 ± 0.46	1781 ± 2	1756 ± 2	1732 ± 2
x2 = 0.057	1271.79 ± 0.46	1264.9 ± 0.45	1258.06 ± 0.45	1759 ± 2	1734 ± 2	1710 ± 2
x2 = 0.113	1255.1 ± 0.45	1248.21 ± 0.44	1241.74 ± 0.44	1733 ± 2	1708 ± 2	1684 ± 2
x2 = 0.216	1221.14 ± 0.42	1214.5 ± 0.41	1207.89 ± 0.41	1678 ± 2	1652 ± 2	1628 ± 2
x2 = 0.306	1188.62 ± 0.39	1181.87 ± 0.39	1175.24 ± 0.38	1627 ± 2	1600 ± 2	1576 ± 2
x2 = 0.404	1150.41 ± 0.36	1143.48 ± 0.36	1136.6 ± 0.35	1569 ± 2	1544 ± 2	1519 ± 2
x2 = 0.51	1104.6 ± 0.33	1097.6 ± 0.32	1090.68 ± 0.32	1511 ± 2	1485 ± 2	1459 ± 2
x2 = 0.608	1058.29 ± 0.29	1051.16 ± 0.29	1043.98 ± 0.28	1463 ± 2	1435 ± 2	1408 ± 2
x2 = 0.716	1001.72 ± 0.26	994.56 ± 0.26	987.39 ± 0.26	1413 ± 2	1385 ± 2	1357 ± 2
x2 = 0.801	952.72 ± 0.26	945.38 ± 0.26	938.08 ± 0.26	1378 ± 2	1349 ± 2	1320 ± 2
x2 = 0.9	889.67 ± 0.27	882.45 ± 0.27	875.19 ± 0.27	1342 ± 2	1311 ± 2	1280 ± 2
x2 = 0.956	851 ± 0.27	843.78 ± 0.28	836.48 ± 0.28	1325 ± 2	1292 ± 2	1260 ± 2

CCn1cc[n+](C)c1.COS(=O)(=O)[O-] [1-ethyl-3-methylimidazolium methylsulfate] + CC(C)O
Details	mass density, 288.15 K [kg/m3]	mass density, 298.15 K [kg/m3]	mass density, 308.15 K [kg/m3]	speed of sound, 288.15 K [m/s]	speed of sound, 298.15 K [m/s]	speed of sound, 308.15 K [m/s]
x2 = 0	1287.57 ± 0.47	1280.81 ± 0.47	1273.97 ± 0.46	1781 ± 2	1756 ± 2	1732 ± 2
x2 = 0.049	1277.61 ± 0.44	1270.72 ± 0.43	1263.87 ± 0.42	1766 ± 2	1741 ± 2	1717 ± 2
x2 = 0.101	1266.36 ± 0.4	1259.44 ± 0.39	1252.56 ± 0.39	1749 ± 2	1724 ± 2	1700 ± 2
x2 = 0.205	1240.88 ± 0.33	1233.92 ± 0.33	1227.01 ± 0.32	1708 ± 2	1683 ± 2	1658 ± 2
x2 = 0.307	1212.09 ± 0.27	1205.09 ± 0.27	1198.13 ± 0.26	1659 ± 2	1634 ± 2	1609 ± 2
x2 = 0.388	1185.23 ± 0.24	1178.18 ± 0.23	1171.15 ± 0.23	1614 ± 2	1588 ± 2	1564 ± 2
x2 = 0.505	1140.35 ± 0.2	1133.21 ± 0.2	1126.08 ± 0.19	1541 ± 2	1515 ± 2	1490 ± 2
x2 = 0.611	1091.15 ± 0.18	1083.89 ± 0.18	1076.62 ± 0.17	1469 ± 2	1443 ± 2	1416 ± 2
x2 = 0.705	1039.05 ± 0.17	1031.61 ± 0.17	1024.15 ± 0.17	1402 ± 2	1375 ± 2	1348 ± 2
x2 = 0.805	972.17 ± 0.19	964.55 ± 0.19	956.84 ± 0.19	1326 ± 2	1298 ± 2	1269 ± 2
x2 = 0.902	891.92 ± 0.21	884.06 ± 0.21	876.06 ± 0.22	1252 ± 2	1221 ± 2	1190 ± 2
x2 = 0.953	842.51 ± 0.25	834.48 ± 0.25	826.24 ± 0.25	1214 ± 2	1181 ± 2	1148 ± 2
